Earlier results in paper PMC12181400, “Leveraging viral genome sequences and machine learning models for identification of potentially selective antiviral agents” (Communications Chemistry, 2025).
Where a name gives a salt, the structure may show the parent alone. Read-outs that look alike come from different tables or passages of the source.

Experiments:
Conditions in all cases: cited from earlier work
[1] = system: cell viability (tox21-car-antagonist-p1)
[2] = system: cell viability (tox21-ar-mda-kb2-luc-antagonist-p2)
[3] = system: cell viability (tox21-car-agonist-p1)
[4] = system: cell viability (tox21-are-bla-p1)
[5] = system: cell viability (tox21-ar-mda-kb2-luc-agonist-p3)
[6] = system: cell viability (tox21-ap1-agonist-p1)
[7] = curve rank −9 to 9, 0 = inactive, ref NCATS Tox21 public data browser

| SMILES | tox21-car-antagonist-p1-viability (curve rank) [1] | tox21-ar-mda-kb2-luc-antagonist-p2-viability (curve rank) [2] | tox21-car-agonist-p1-viability (curve rank) [3] | tox21-are-bla-p1-viability (curve rank) [4] | tox21-ar-mda-kb2-luc-agonist-p3-viability (curve rank) [5] | tox21-ap1-agonist-p1-viability (curve rank) [6] | tox21-car-antagonist-p1-viability (curve rank) [1, 7] | tox21-ar-mda-kb2-luc-antagonist-p2-viability (curve rank) [2, 7] | tox21-car-agonist-p1-viability (curve rank) [3, 7] | tox21-are-bla-p1-viability (curve rank) [4, 7] | tox21-ar-mda-kb2-luc-agonist-p3-viability (curve rank) [5, 7] | tox21-ap1-agonist-p1-viability (curve rank) [6, 7] |
| --- | --- | --- | --- | --- | --- | --- | --- | --- | --- | --- | --- | --- |
| Cc1ccc(S(=O)(=O)NC(=O)NN2CC3CCCC3C2)cc1 (stereo not drawn) [Gliclazide] | 0 | 0 | 0 | 0 | 0 | 0 | – | – | – | – | – | – |
| CCCCCC(N)=O [Hexanamide] | – | – | – | – | – | – | 0 | 0 | 0 | 0 | 0 | 0 |
| O=C(O)CCCCC(=O)O [Hexanedioic acid] | – | – | – | – | – | – | 0 | 0 | 0 | 0 | 0 | 0 |
| C[C@]12CCC(=O)C=C1CC[C@@H]1[C@@H]2[C@@H](O)C[C@@]2(C)[C@H]1CC[C@]2(O)C(=O)CO [Hydrocortisone] | 0 | 0 | 0 | 0 | 0 | 0 | – | – | – | – | – | – |
| Nc1c2c(nc3ccccc13)CCCC2O.O=C(O)/C=C\C(=O)O (stereo not drawn) [Hydroxytacrine maleate] | – | – | – | – | – | – | 0 | 0 | 0 | 0 | 0 | 0 |
| CC1Cc2ccccc2N1NC(=O)c1ccc(Cl)c(S(N)(=O)=O)c1 (stereo not drawn) [Indapamide] | 0 | 0 | 0 | 0 | 0 | 0 | – | – | – | – | – | – |
| C[C@H](O)C(=O)Nc1c(I)c(C(=O)NC(CO)CO)c(I)c(C(=O)NC(CO)CO)c1I [Iopamidol] | 0 | 0 | 0 | 0 | 0 | 0 | – | – | – | – | – | – |
| CC(C)NNC(=O)c1ccncc1 [Iproniazid sulfate] | 0 | 0 | 0 | 0 | 0 | 0 | – | – | – | – | – | – |
| O=C1c2ccccc2S(=O)(=O)N1CCCCN1CCN(c2ncccn2)CC1 [Ipsapirone] | 0 | 0 | 0 | 0 | 0 | 0 | – | – | – | – | – | – |
| O=C(c1ccccc1)c1ccc2n1CCC2C(=O)O (stereo not drawn) [Ketorolac] | 0 | 0 | 0 | 0 | 0 | 0 | – | – | – | – | – | – |
| Nc1nnc(-c2cccc(Cl)c2Cl)c(N)n1 [Lamotrigine] | 0 | 0 | -0.67 | 0 | 0 | 0 | – | – | – | – | – | – |
| Cc1oncc1C(=O)Nc1ccc(C(F)(F)F)cc1 [Leflunomide] | 0 | 0 | 0 | 0 | 0 | 0 | – | – | – | – | – | – |
